Results taken from patent US4081441A, “Antibacterial agents” (priority 1977, dated 1978).
≈ marks a conversion by molar mass, not a printed value. Read-outs that look alike come from different tables or passages of the source.

Key:
Bacteroides fragilis = test: M.I.C. against anaerobic bacteria, Bacteroides fragilis; format: cell-based
Cl. ramosum = test: M.I.C. against anaerobic bacteria, Cl. ramosum; format: cell-based; conditions: Thomasclavelia ramosa
Pseudomonas aeruginosa [1] = test: animal or person; conditions: in Mus musculus, im
Cl. septicum = test: M.I.C. against anaerobic bacteria, Cl. septicum; format: cell-based; conditions: Clostridium septicum; strain A21869
Cl. difficile = test: M.I.C. against anaerobic bacteria, Cl. difficile; format: cell-based; conditions: Clostridioides difficile
Cl. acidiurici = test: M.I.C. against anaerobic bacteria, Cl. acidiurici; format: cell-based; conditions: strain A9560
Cl. cylindrosporum = test: M.I.C. against anaerobic bacteria, Cl. cylindrosporum; format: cell-based; conditions: strain A9562
Cl. perfringens = test: microbe, parasite or virus in culture; format: cell-based; conditions: Clostridium perfringens
Pseudomonas aeruginosa [2] = test: Minimum Inhibitory Concentration, agar dilution, overnight incubation at 37° C.; format: cell-based; conditions: for MIC: Pseudomonas aeruginosa
Source text: A carbenicillin sample was also run for comparative purposes.

Pseudomonas aeruginosa [3] = test: Minimum Bactericidal Concentration, inoculum 10^5 cells/ml., at least 99.9% kill; format: cell-based
Source text: The effect of increased inoculum size on the bactericidal activity of BL-P1908 was investigated by a second test in which an inoculum size of 10^5 cells/ml. was used and the M.B.C. was defined as the lowest concentration of antibiotics in mcg./ml. needed to kill at least 99.9% of viable Pseudomonas cells.

Pseudomonas aeruginosa [4] = test: Minimum Bactericidal Concentration, inoculum 10^4 cells/ml., at least 99% kill; format: cell-based
Experimental: The bactericidal in vitro activity of sodium D(-)-6-(α-(1,2,4-triazine-3,5-dione-6-carboxamido)-4-hydroxyphenylacetamido)penicillanate (BL-P1908) against several strains of Pseudomonas aeruginosa was determined under two sets of conditions. In one test the Minimum Bactericidal Concentrations (M.B.C.) were determined using an inoculum size of 10^4 cells/ml. and the M.B.C. was defined as the lowest concentration of antibiotic in mcg./ml. needed to kill at least 99% of the viable Pseudomonas cells.

[5] = Mouse blood (plasma) antibiotic levels after single intramuscular dose; format: in vivo; conditions: im, 40 mg/kg, mice, 40 mg./kg. i.m., Test 1 (Ave. of 6 mice tested), read-out: Blood Level
Experimental: Plasma antibiotic levels from mice administered a single intramuscular dose of 40 mg./kg. of BL-[…] or carbenicillin are shown in the following table.

[6] = read-out: PD50 /treatment, P. aeruginosa A9843A, challenge 3 × 10^4, i.m., at 0 and 2 hours
[7] = read-out: PD50 /treatment, P. aeruginosa A20599, challenge 3 × 10^4, i.m., at 0 and 2 hours
[8] = read-out: PD50 /treatment, P. aeruginosa A20599, challenge 6 × 10^4, i.m., at 0 and 2 hours

## CC1(C)S[C@@H]2[C@H](NC(=O)[C@H](NC(=O)c3n[nH]c(=S)[nH]c3=O)c3ccc(O)cc3)C(=O)N2[C@H]1C(=O)O [BL-P1937, sodium D(-)-6-(α-(1,2,4-triazine-3-thione-5-one-6-carboxamido)-4-hydroxyphenylacetamido)-penicillanate]
Bacteroides fragilis; strain A20920
  MIC: 0.5 µg/mL
Bacteroides fragilis; strain A20926
  MIC: 2 µg/mL
Bacteroides fragilis; strain A20927-1
  MIC: 1 µg/mL
Bacteroides fragilis; strain A20930
  MIC: 16 µg/mL
Bacteroides fragilis; strain A20933
  MIC: 4 µg/mL
Bacteroides fragilis; strain A20934
  MIC: 4 µg/mL
Bacteroides fragilis; strain A20935
  MIC: 2 µg/mL
Bacteroides fragilis; strain A21870
  MIC: 1 µg/mL
Bacteroides fragilis; strain A21871
  MIC: 2 µg/mL
Bacteroides fragilis; strain A21872
  MIC: 16 µg/mL
Bacteroides fragilis; strain A21875
  MIC: 8 µg/mL
Bacteroides fragilis; strain A22053
  MIC: 2 µg/mL
Bacteroides fragilis; strain A27020
  MIC: 8 µg/mL
Cl. ramosum; strain A21883
  MIC: 0.25 µg/mL
Cl. ramosum; strain A21970
  MIC: 2 µg/mL
Pseudomonas aeruginosa [1]; read-out: PD50 /treatment, P. aeruginosa A9843A, challenge 1 × 10^4, i.m., at 0 and 2 hours
  ED50: 11 mg/kg
Pseudomonas aeruginosa [1]; read-out: PD50 /treatment, P. aeruginosa A9843A, challenge 2 × 10^4, i.m., at 0 and 2 hours
  ED50: 5.4 mg/kg
Pseudomonas aeruginosa [1]; [6]
  ED50: 11 mg/kg
Pseudomonas aeruginosa [1]; [7]
  ED50: ~13 mg/kg
Pseudomonas aeruginosa [1]; [8]
  ED50: 22 mg/kg
Cl. septicum
  MIC: 1 µg/mL
Cl. difficile; strain A21675
  MIC: 4 µg/mL
Cl. difficile; strain A21972
  MIC: 4 µg/mL
Cl. acidiurici
  MIC: 1 µg/mL
Cl. cylindrosporum
  MIC: 0.25 µg/mL
Cl. perfringens; strain A21873
  MIC: 0.063 µg/mL
Cl. perfringens; strain A21874
  MIC: 0.13 µg/mL
Cl. perfringens; strain A21907
  MIC: 0.25 µg/mL

## CC1(C)S[C@@H]2[C@H](NC(=O)C(C(=O)O)c3ccccc3)C(=O)N2[C@H]1C(=O)O (some centres unmarked) [Carbenicillin, reference compound]
Bacteroides fragilis; strain A20920
  MIC: 2 µg/mL (≈ 5.29 µM)
Bacteroides fragilis; strain A20926
  MIC: 16 µg/mL (≈ 42.3 µM)
Bacteroides fragilis; strain A20927-1
  MIC: 2 µg/mL (≈ 5.29 µM)
Bacteroides fragilis; strain A20930
  MIC: 63 µg/mL (≈ 166 µM)
Bacteroides fragilis; strain A20933
  MIC: 32 µg/mL (≈ 84.6 µM)
Bacteroides fragilis; strain A20934
  MIC: 32 µg/mL (≈ 84.6 µM)
Bacteroides fragilis; strain A20935
  MIC: 32 µg/mL (≈ 84.6 µM)
Bacteroides fragilis; strain A21870
  MIC: 4 µg/mL (≈ 10.6 µM)
Bacteroides fragilis; strain A21871
  MIC: 32 µg/mL (≈ 84.6 µM)
Bacteroides fragilis; strain A21872
  MIC: 63 µg/mL (≈ 166 µM)
Bacteroides fragilis; strain A21875
  MIC: 16 µg/mL (≈ 42.3 µM)
Bacteroides fragilis; strain A22053
  MIC: 63 µg/mL (≈ 166 µM)
Bacteroides fragilis; strain A27020
  MIC: > 125 µg/mL
Cl. ramosum; strain A21883
  MIC: 32 µg/mL (≈ 84.6 µM)
Cl. ramosum; strain A21970
  MIC: 32 µg/mL (≈ 84.6 µM)
Pseudomonas aeruginosa [1]; read-out: PD50 /treatment, P. aeruginosa A9843A, challenge 1 × 10^4, i.m., typical figures based on several tests
  ED50: 100 mg/kg
Pseudomonas aeruginosa [1]; read-out: PD50 /treatment, P. aeruginosa A9843A, challenge 2 × 10^4, i.m., typical figures based on several tests
  ED50: 100 mg/kg
Pseudomonas aeruginosa [1]; [6]
  ED50: 130 mg/kg
Pseudomonas aeruginosa [1]; [7]
  ED50: 100 mg/kg
Pseudomonas aeruginosa [1]; [8]
  ED50: 130 mg/kg
Cl. septicum
  MIC: 1 µg/mL (≈ 2.64 µM)
Pseudomonas aeruginosa [2]
  M.I.C.: 32 µg/mL
Pseudomonas aeruginosa [2]; strain A9502
  MIC: 63 µg/mL (≈ 166 µM)
Pseudomonas aeruginosa [2]; strain A9827
  MIC: 32 µg/mL (≈ 84.6 µM)
Pseudomonas aeruginosa [2]; strain A9910
  MIC: 32 µg/mL (≈ 84.6 µM)
Pseudomonas aeruginosa [2]; strain A9923
  MIC: 63 µg/mL (≈ 166 µM)
Pseudomonas aeruginosa [2]; strain A9924
  MIC: 63 µg/mL (≈ 166 µM)
Pseudomonas aeruginosa [2]; strain A9925
  MIC: 32 µg/mL (≈ 84.6 µM)
Pseudomonas aeruginosa [2]; strain A9926
  MIC: 63 µg/mL (≈ 166 µM)
Pseudomonas aeruginosa [2]; strain A9930
  MIC: 63 µg/mL (≈ 166 µM)
Pseudomonas aeruginosa [2]; strain A9931
  MIC: 63 µg/mL (≈ 166 µM)
Pseudomonas aeruginosa [2]; strain A15150
  MIC: 32 µg/mL (≈ 84.6 µM)
Pseudomonas aeruginosa [2]; strain A15151
  MIC: 32 µg/mL (≈ 84.6 µM)
Pseudomonas aeruginosa [2]; strain A15194
  MIC: > 125 µg/mL
Pseudomonas aeruginosa [2]; strain A15195
  MIC: 63 µg/mL (≈ 166 µM)
Pseudomonas aeruginosa [2]; strain A15196
  MIC: 63 µg/mL (≈ 166 µM)
Pseudomonas aeruginosa [2]; strain A20125
  MIC: 63 µg/mL (≈ 166 µM)
Pseudomonas aeruginosa [2]; strain A20126
  MIC: 16 µg/mL (≈ 42.3 µM)
Pseudomonas aeruginosa [2]; strain A20127
  MIC: 63 µg/mL (≈ 166 µM)
Pseudomonas aeruginosa [2]; strain A20128
  MIC: 63 µg/mL (≈ 166 µM)
Pseudomonas aeruginosa [2]; strain A20129
  MIC: 63 µg/mL (≈ 166 µM)
Pseudomonas aeruginosa [2]; strain A20130
  MIC: 63 µg/mL (≈ 166 µM)
Pseudomonas aeruginosa [2]; strain A20228
  MIC: 63 µg/mL (≈ 166 µM)
Pseudomonas aeruginosa [2]; strain A20546
  MIC: 63 µg/mL (≈ 166 µM)
Pseudomonas aeruginosa [2]; strain A20557
  MIC: > 125 µg/mL
Pseudomonas aeruginosa [2]; strain A20574
  MIC: 32 µg/mL (≈ 84.6 µM)
Pseudomonas aeruginosa [2]; strain A20602
  MIC: 63 µg/mL (≈ 166 µM)
Pseudomonas aeruginosa [2]; strain A20616
  MIC: 63 µg/mL (≈ 166 µM)
Pseudomonas aeruginosa [2]; strain A20641
  MIC: 63 µg/mL (≈ 166 µM)
Pseudomonas aeruginosa [2]; strain A20717
  MIC: > 125 µg/mL
Pseudomonas aeruginosa [2]; strain A20726
  MIC: 63 µg/mL (≈ 166 µM)
Pseudomonas aeruginosa [2]; strain A21336
  MIC: 63 µg/mL (≈ 166 µM)
Cl. difficile; strain A21675
  MIC: 32 µg/mL (≈ 84.6 µM)
Cl. difficile; strain A21972
  MIC: 32 µg/mL (≈ 84.6 µM)
Pseudomonas aeruginosa [3]; strain 9843A
  MBC: 125 µg/mL (≈ 330 µM)
Pseudomonas aeruginosa [3]; strain 9910
  MBC: 125 µg/mL (≈ 330 µM)
Pseudomonas aeruginosa [3]; strain 9926
  MBC: 125 µg/mL (≈ 330 µM)
Pseudomonas aeruginosa [3]; strain 20126
  MBC: 63 µg/mL (≈ 166 µM)
Pseudomonas aeruginosa [3]; strain 20128
  MBC: 125 µg/mL (≈ 330 µM)
Pseudomonas aeruginosa [3]; strain 20227
  MBC: 125 µg/mL (≈ 330 µM)
Pseudomonas aeruginosa [3]; strain 20228
  MBC: 63 µg/mL (≈ 166 µM)
Pseudomonas aeruginosa [3]; strain 20546
  MBC: 250 µg/mL (≈ 661 µM)
Pseudomonas aeruginosa [3]; strain 20557
  MBC: 250 µg/mL (≈ 661 µM)
Pseudomonas aeruginosa [3]; strain 20574
  MBC: 125 µg/mL (≈ 330 µM)
Pseudomonas aeruginosa [3]; strain 20602
  MBC: 250 µg/mL (≈ 661 µM)
Pseudomonas aeruginosa [3]; strain 20616
  MBC: 250 µg/mL (≈ 661 µM)
Pseudomonas aeruginosa [3]; strain 20641
  MBC: 125 µg/mL (≈ 330 µM)
Pseudomonas aeruginosa [3]; strain 20717
  MBC: 1000 µg/mL (≈ 2640 µM)
Pseudomonas aeruginosa [3]; strain 20726
  MBC: 250 µg/mL (≈ 661 µM)
Pseudomonas aeruginosa [3]; strain 21336
  MBC: 125 µg/mL (≈ 330 µM)
Pseudomonas aeruginosa [4]; strain 9843A
  MBC: 63 µg/mL (≈ 166 µM)
Pseudomonas aeruginosa [4]; strain 9910
  MBC: 32 µg/mL (≈ 84.6 µM)
Pseudomonas aeruginosa [4]; strain 9926
  MBC: 63 µg/mL (≈ 166 µM)
Pseudomonas aeruginosa [4]; strain 20126
  MBC: 63 µg/mL (≈ 166 µM)
Pseudomonas aeruginosa [4]; strain 20128
  MBC: 63 µg/mL (≈ 166 µM)
Pseudomonas aeruginosa [4]; strain 20227
  MBC: 63 µg/mL (≈ 166 µM)
Pseudomonas aeruginosa [4]; strain 20228
  MBC: 63 µg/mL (≈ 166 µM)
Pseudomonas aeruginosa [4]; strain 20546
  MBC: 63 µg/mL (≈ 166 µM)
Pseudomonas aeruginosa [4]; strain 20557
  MBC: 250 µg/mL (≈ 661 µM)
Pseudomonas aeruginosa [4]; strain 20574
  MBC: 63 µg/mL (≈ 166 µM)
Pseudomonas aeruginosa [4]; strain 20616
  MBC: 125 µg/mL (≈ 330 µM)
Pseudomonas aeruginosa [4]; strain 20641
  MBC: 125 µg/mL (≈ 330 µM)
Pseudomonas aeruginosa [4]; strain 20717
  MBC: 250 µg/mL (≈ 661 µM)
Pseudomonas aeruginosa [4]; strain 20726
  MBC: 125 µg/mL (≈ 330 µM)
Pseudomonas aeruginosa [4]; strain 21336
  MBC: 63 µg/mL (≈ 166 µM)
Cl. acidiurici
  MIC: 0.5 µg/mL (≈ 1.32 µM)
[5]; 15 min.
  concentration at 0.25 h: 19100 ng/mL
[5]; 30 min.
  concentration at 0.5 h: 12500 ng/mL
[5]; 60 min.
  concentration at 1 h: 4000 ng/mL
[5]; 90 min.
  concentration at 1.5 h: < 1400 ng/mL
Cl. cylindrosporum
  MIC: 0.5 µg/mL (≈ 1.32 µM)
Cl. perfringens; strain A21873
  MIC: 0.5 µg/mL (≈ 1.32 µM)
Cl. perfringens; strain A21874
  MIC: 0.5 µg/mL (≈ 1.32 µM)
Cl. perfringens; strain A21907
  MIC: 4 µg/mL (≈ 10.6 µM)
